From paper PMC4157719, “Arabidopsis membrane-associated acyl-CoA-binding protein ACBP1 is involved in stem cuticle formation” (Journal of Experimental Botany, 2014)

target: T1, rACBP1 ((His)6-tagged recombinant AtACBP1) (Arabidopsis thaliana, UniProt Q9SM23); test: isothermal titration calorimetry; format: binding; details: not given
T1 construct: gene ACBP1; (His)6-tagged, soluble fraction of E. coli BL21(DE3), Ni-NTA purified
T1 sequence (Q9SM23 1-338): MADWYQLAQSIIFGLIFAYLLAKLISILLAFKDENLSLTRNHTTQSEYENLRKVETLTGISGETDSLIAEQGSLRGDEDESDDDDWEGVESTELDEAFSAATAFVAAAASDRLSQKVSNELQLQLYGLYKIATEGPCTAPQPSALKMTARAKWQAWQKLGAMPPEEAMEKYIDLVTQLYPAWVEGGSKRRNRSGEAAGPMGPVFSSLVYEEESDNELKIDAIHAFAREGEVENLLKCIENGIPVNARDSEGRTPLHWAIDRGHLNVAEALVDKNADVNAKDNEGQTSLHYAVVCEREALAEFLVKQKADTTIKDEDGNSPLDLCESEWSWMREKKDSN
Description: isothermal titration calorimetry on rACBP1 ((His)6-tagged recombinant AtACBP1)

Row | Compound | Kd [µM]
1 | CCCCCCCCCCCCCCCCCCCCCCCCCC(=O)SCCNC(=O)CCNC(=O)[C@H](O)C(C)(C)COP(=O)(O)OP(=O)(O)OC[C@H]1O[C@@H](n2cnc3c(N)ncnc32)[C@H](O)[C@@H]1OP(=O)(O)O [C26:0, C26:0-CoA] | 1.94 ± 0.12
2 | CCCCCCCCCCCCCCCCCCCCCCCCC(=O)SCCNC(=O)CCNC(=O)[C@H](O)C(C)(C)COP(=O)(O)OP(=O)(O)OC[C@H]1O[C@@H](n2cnc3c(N)ncnc32)[C@H](O)[C@@H]1OP(=O)(O)O [C25:0, C25:0-CoA] | 1.69 ± 0.11
3 | CCCCCCCCCCCCCCCCCCCCCCCC(=O)SCCNC(=O)CCNC(=O)[C@H](O)C(C)(C)COP(=O)(O)OP(=O)(O)OC[C@H]1O[C@@H](n2cnc3c(N)ncnc32)[C@H](O)[C@@H]1OP(=O)(O)O [C24:0, C24:0-CoA] | 2.14 ± 0.13

same assay, conditions: 30 °C; single binding site model

Row | Compound | Kd [µM]
4 | C18:3-CoA | 0.44 ± 0.01
5 | C18:2-CoA | 0.83 ± 0.04
6 | C18:1-CoA | 0.76 ± 0.15
